How the values were obtained:
[1] = test system: ragweed (common ragweed, Ambrosia elatior); assay: Test A postemergence, visual injury rating 0-100; assay type: in vivo; conditions: 0 to 100 scale
kochia (Kochia scoparia) [2] = assay: Test A postemergence, visual injury rating 0-100; assay type: in vivo; conditions: 0 to 100 scale
[3] = test system: ryegrass, Italian (Italian ryegrass, Lolium multiflorum); assay: Test A postemergence, visual injury rating 0-100; assay type: in vivo; conditions: 0 to 100 scale
[4] = test system: pigweed (Amaranthus retroflexus); assay: Test A postemergence, visual injury rating 0-100; assay type: in vivo; conditions: 0 to 100 scale
[5] = test system: wheat (Triticum aestivum); assay: Test A postemergence, visual injury rating 0-100; assay type: in vivo; conditions: 0 to 100 scale
[6] = test system: blackgrass (Alopecurus myosuroides); assay: Test A postemergence, visual injury rating 0-100; assay type: in vivo; conditions: 0 to 100 scale
[7] = test system: foxtail, giant (giant foxtail, Setaria faberii); assay: Test A postemergence, visual injury rating 0-100; assay type: in vivo; conditions: 0 to 100 scale
[8] = test system: galium (catchweed bedstraw, Galium aparine); assay: Test A postemergence, visual injury rating 0-100; assay type: in vivo; conditions: 0 to 100 scale
corn (Zea mays) = assay: Test A postemergence, visual injury rating 0-100; assay type: in vivo; conditions: 0 to 100 scale
[9] = test system: barnyardgrass (Echinochloa crus-galli); assay: Test A postemergence, visual injury rating 0-100; assay type: in vivo; conditions: 0 to 100 scale
[10] = test system: ragweed (common ragweed, Ambrosia elatior); assay: Test A preemergence, visual injury rating 0-100; assay type: in vivo; conditions: for Ragweed plant response rating: 31 g ai/ha, 0 to 100 scale (0 no effect, 100 complete control), approx. 10 days
kochia (Kochia scoparia) [11] = assay: Test A preemergence, visual injury rating 0-100; assay type: in vivo; conditions: for Kochia plant response rating: 31 g ai/ha, 0 to 100 scale (0 no effect, 100 complete control), approx. 10 days
[12] = test system: ryegrass, Italian (Italian ryegrass, Lolium multiflorum); assay: Test A preemergence, visual injury rating 0-100; assay type: in vivo; conditions: for Ryegrass, Italian plant response rating: 31 g ai/ha, 0 to 100 scale (0 no effect, 100 complete control), approx. 10 days
[13] = test system: pigweed (Amaranthus retroflexus); assay: Test A preemergence, visual injury rating 0-100; assay type: in vivo; conditions: for Pigweed plant response rating: 31 g ai/ha, 0 to 100 scale (0 no effect, 100 complete control), approx. 10 days
[14] = test system: foxtail, giant (giant foxtail, Setaria faberii); assay: Test A preemergence, visual injury rating 0-100; assay type: in vivo; conditions: for Foxtail, Giant plant response rating: 31 g ai/ha, 0 to 100 scale (0 no effect, 100 complete control), approx. 10 days
[15] = test system: ducksalad (Heteranthera limosa); assay: Test B flooded paddy test, visual rating 0-100; conditions: Flood, 250 g ai/ha, applied to paddy water, rated after 13 to 15 days
[16] = test system: barnyardgrass (Echinochloa crus-galli); assay: Test B flooded paddy test, visual rating 0-100; conditions: Flood, 250 g ai/ha, applied to paddy water, rated after 13 to 15 days
[17] = test system: barnyardgrass (Echinochloa crus-galli); assay: Test A preemergence, visual injury rating 0-100 (0 no effect, 100 complete control); assay type: in vivo; conditions: for Barnyardgrass plant response rating: 31 g ai/ha, 0 to 100 scale (0 no effect, 100 complete control), approx. 10 days
rice (Oryza sativa) = assay: Test B flooded paddy test, visual rating 0-100 (0 no effect, 100 complete control); conditions: Flood, 250 g ai/ha, applied to paddy water, rated after 13 to 15 days

Structure (SMILES)	Ragweed plant response rating ([1]; 125 g ai/ha)	Kochia plant response rating (kochia (Kochia scoparia) [2]; 125 g ai/ha)	Ryegrass, Italian plant response rating ([3]; 125 g ai/ha)	Pigweed plant response rating ([4]; 125 g ai/ha)	Wheat plant response rating ([5]; 125 g ai/ha)	Blackgrass plant response rating ([6]; 125 g ai/ha)	Foxtail, Giant plant response rating ([7]; 125 g ai/ha)	Galium plant response rating ([8]; 125 g ai/ha)	Corn plant response rating (corn (Zea mays); 125 g ai/ha)	Barnyardgrass plant response rating ([9]; 125 g ai/ha)	Ragweed plant response rating (0 to 100 scale) ([10]; 125 g ai/ha)	Kochia plant response rating (0 to 100 scale) (kochia (Kochia scoparia) [11]; 125 g ai/ha)	Ryegrass, Italian plant response rating (0 to 100 scale) ([12]; 125 g ai/ha)	Pigweed plant response rating (0 to 100 scale) ([13]; 125 g ai/ha)	Foxtail, Giant plant response rating (0 to 100 scale) ([14]; 125 g ai/ha)	Ducksalad plant response rating (0 to 100 scale) [15]	Barnyardgrass plant response rating (0 to 100 scale) [16]	Barnyardgrass plant response rating (0 to 100 scale) ([17]; 125 g ai/ha)	Rice plant response rating (0 to 100 scale) (rice (Oryza sativa))	Ragweed plant response rating ([1]; 31 g ai/ha)	further results
CC1=[N+]([O-])[C@H](C(=O)Nc2cccc(F)c2F)[C@@H](c2ccc(C(F)F)cc2)C1 (relative stereo) [Compound 93, rel-(2S,3R)-3-(4-Difluoromethyl)phenyl)-N-(2,3-difluorophenyl) 3,4-dihydro-5-methyl-2H-pyrrole-2-carboxamide 1-oxide]	0	0	60	50	60	60	80	60	60	70	70	30	70	80	90	100	70	90	15	–	Ragweed plant response rating ([1]; 500 g ai/ha): 70; Kochia plant response rating (kochia (Kochia scoparia) [2]; 500 g ai/ha): 80; Ryegrass, Italian plant response rating ([3]; 500 g ai/ha): 70; Pigweed plant response rating ([4]; 500 g ai/ha): 80; Wheat plant response rating ([5]; 500 g ai/ha): 80; Blackgrass plant response rating ([6]; 500 g ai/ha): 70; Foxtail, Giant plant response rating ([7]; 500 g ai/ha): 90; Galium plant response rating ([8]; 500 g ai/ha): 70; Corn plant response rating (corn (Zea mays); 500 g ai/ha): 90; Barnyardgrass plant response rating ([9]; 500 g ai/ha): 90; Ragweed plant response rating (0 to 100 scale) ([10]; 500 g ai/ha): 90; Kochia plant response rating (0 to 100 scale) (kochia (Kochia scoparia) [11]; 500 g ai/ha): 80; Ryegrass, Italian plant response rating (0 to 100 scale) ([12]; 500 g ai/ha): 90; Pigweed plant response rating (0 to 100 scale) ([13]; 500 g ai/ha): 90; Foxtail, Giant plant response rating (0 to 100 scale) ([14]; 500 g ai/ha): 90; Barnyardgrass plant response rating (0 to 100 scale) ([17]; 500 g ai/ha): 90
CC1=[N+]([O-])[C@H](C(=O)Nc2cccc(F)c2F)[C@@H](c2ccc(F)c(OC(F)(F)C(F)F)c2)C1 [Compound 54, (2S,3R)—N-(2,3-Difluorophenyl)-3-[4-fluoro-3-(1,1,2,2-tetrafluoroethyoxy)phenyl]-3,4-dihydro-5-methyl-2H-pyrrole-2-carboxamide 1-oxide]	30	50	70	60	50	70	70	70	70	70	50	50	80	70	90	80	35	90	0	0	Kochia plant response rating (kochia (Kochia scoparia) [2]; 31 g ai/ha): 0; Ryegrass, Italian plant response rating ([3]; 31 g ai/ha): 0; Pigweed plant response rating ([4]; 31 g ai/ha): 20; Wheat plant response rating ([5]; 31 g ai/ha): 0; Blackgrass plant response rating ([6]; 31 g ai/ha): 60; Foxtail, Giant plant response rating ([7]; 31 g ai/ha): 30; Galium plant response rating ([8]; 31 g ai/ha): 40; Corn plant response rating (corn (Zea mays); 31 g ai/ha): 40; Barnyardgrass plant response rating ([9]; 31 g ai/ha): 30; Ragweed plant response rating [10]: 0; Kochia plant response rating (kochia (Kochia scoparia) [11]): 0; Ryegrass, Italian plant response rating [12]: 60; Pigweed plant response rating [13]: 0; Foxtail, Giant plant response rating [14]: 90; Barnyardgrass plant response rating [17]: 80
CC1=[N+]([O-])[C@@H](C(=O)Nc2cccc(F)c2F)[C@H](c2cccc(OC(C)C)c2)C1 [Compound 55]	0	0	70	0	30	80	80	30	0	60	0	0	80	0	90	100	70	90	0	0	Kochia plant response rating (kochia (Kochia scoparia) [2]; 31 g ai/ha): 0; Ryegrass, Italian plant response rating ([3]; 31 g ai/ha): 50; Pigweed plant response rating ([4]; 31 g ai/ha): 0; Wheat plant response rating ([5]; 31 g ai/ha): 0; Blackgrass plant response rating ([6]; 31 g ai/ha): 0; Foxtail, Giant plant response rating ([7]; 31 g ai/ha): 10; Galium plant response rating ([8]; 31 g ai/ha): 0; Corn plant response rating (corn (Zea mays); 31 g ai/ha): 0; Barnyardgrass plant response rating ([9]; 31 g ai/ha): 20; Ragweed plant response rating [10]: 0; Kochia plant response rating (kochia (Kochia scoparia) [11]): 0; Ryegrass, Italian plant response rating [12]: 0; Pigweed plant response rating [13]: 0; Foxtail, Giant plant response rating [14]: 70; Barnyardgrass plant response rating [17]: 90
CC1=[N+]([O-])[C@@H](C(=O)Nc2cccc(F)c2F)[C@H](c2cccc(OC(C)(C)C)c2)C1 [Compound 69]	20	0	70	20	0	70	90	40	0	70	0	0	80	0	100	95	90	90	0	0	Kochia plant response rating (kochia (Kochia scoparia) [2]; 31 g ai/ha): 0; Ryegrass, Italian plant response rating ([3]; 31 g ai/ha): 30; Pigweed plant response rating ([4]; 31 g ai/ha): 0; Wheat plant response rating ([5]; 31 g ai/ha): 0; Blackgrass plant response rating ([6]; 31 g ai/ha): 10; Foxtail, Giant plant response rating ([7]; 31 g ai/ha): 20; Galium plant response rating ([8]; 31 g ai/ha): 20; Corn plant response rating (corn (Zea mays); 31 g ai/ha): 0; Barnyardgrass plant response rating ([9]; 31 g ai/ha): 30; Ragweed plant response rating [10]: 0; Kochia plant response rating (kochia (Kochia scoparia) [11]): 0; Ryegrass, Italian plant response rating [12]: 20; Pigweed plant response rating [13]: 0; Foxtail, Giant plant response rating [14]: 90; Barnyardgrass plant response rating [17]: 90
